Counter-ions that a name gives are not always drawn.
Tested on: not given
Assay: not given
Settings: not given

Row | melting point | Structure (SMILES)
1 | > 250 °C | COc1cc(N)ncc1-c1cccc(Cl)c1Cl.Cl
2 | 238 to 240 °C | COc1ccccc1-c1cnc(N)cc1OCC(F)(F)F.Cl
3 | > 250 °C | Cl.Nc1cc(OCC(F)(F)F)c(-c2cccc(Cl)c2Cl)cn1
4 | 218 to 224 °C | COc1ccccc1-c1cnc(N)cc1OCCN.Cl
5 | 175 to 181 °C | CN(C)c1ccc(-c2ccc(N)nc2N)c2ccccc12.Cl
6 | 183 to 190 °C | NCCOc1nc(N)ccc1-c1cccc(Cl)c1Cl (as salt: hydrochloride) [Compound 38, 6-(2-Amino-ethoxy)-5-(2,3-dichloro-phenyl)-pyridin-2-ylamine]
7 | 92 to 95 °C | COc1ccccc1-c1cnc(N)c(C)c1 [Compound 13, 5-(2-Methoxy-phenyl)-3-methyl-pyridin-2-ylamine]
8 | 63 to 67 °C | COc1ccccc1-c1cnc(N)c(C(F)(F)F)c1 [Compound 14, 5-(2-Methoxy-phenyl)-3-trifluoromethyl-pyridin-2-ylamine]
9 | 75 to 79 °C | COc1ccccc1-c1cnc(N)c(F)c1 [Compound 15, 3-Fluoro-5-(2-methoxy-phenyl)-pyridin-2-ylamine]
10 | 130 to 136 °C | Nc1ncc(-c2cccc(Cl)c2Cl)cc1F [Compound 16, 5-(2,3-Dichloro-phenyl)-3-fluoro-pyridin-2-ylamine]
11 | 107 to 112 °C | Nc1cc(F)c(-c2cccc(Cl)c2Cl)cn1 [Compound 17, 5-(2,3-Dichloro-phenyl)-4-fluoro-pyridin-2-ylamine]
12 | 65 to 70 °C | COc1ccccc1-c1cnc(N)cc1F [Compound 18, 4-Fluoro-5-(2-methoxy-phenyl)-pyridin-2-ylamine]
13 | 140 to 144 °C | COc1ccccc1-c1cnc(N)cc1OC [Compound 20, 4-Methoxy-5-(2-methoxy-phenyl)-pyridin-2-ylamine]
14 | 85 to 88 °C | COc1ccccc1-c1cnc(N)cc1C [Compound 21, 5-(2-Methoxy-phenyl)-4-methyl-pyridin-2-ylamine]
15 | 140 to 145 °C | Cc1cc(N)nc(C)c1-c1cccc(Cl)c1Cl [Compound 28, 5-(2,3-Dichloro-phenyl)-4,6-dimethyl-pyridin-2-ylamine]
16 | 175 to 178 °C | COc1ccccc1-c1ccc(N)nc1F [Compound 32, 6-Fluoro-5-(2-methoxy-phenyl)-pyridin-2-ylamine]
17 | 139 to 144 °C | Nc1ccc(-c2cccc(Cl)c2Cl)c(F)n1 [Compound 33, 5-(2,3-Dichloro-phenyl)-6-fluoro-pyridin-2-ylamine]
18 | 165 to 170 °C | Nc1ccc(-c2cccc(Cl)c2Cl)c(C(F)(F)F)n1 [Compound 34, 5-(2,3-Dichloro-phenyl)-6-trifluoromethyl-pyridin-2-ylamine]
19 | 85 to 87 °C | COc1ccccc1-c1ccc(N)nc1OC [Compound 35, 6-Methoxy-5-(2-methoxy-phenyl)-pyridin-2-ylamine]
20 | 197 to 203 °C | COc1ccccc1-c1ccc(N)nc1OCCN [Compound 37, 6-(2-Amino-ethoxy)-5-(2-methoxy-phenyl)-pyridin-2-ylamine]
21 | 60 to 70 °C | CC(=O)Nc1ccccc1-c1ccc(N)nc1N [Compound 62, N-[2-(2,6-Diamino-pyridin-3-yl)-phenyl]-acetamide]
22 | 128 to 135 °C | Cc1c(Cl)cccc1-c1cc(F)c(N)nc1N [Compound 66, 3-(3-Chloro-2-methyl-phenyl)-5-fluoro-pyridine-2,6-diamine]
23 | 201 to 205 °C | Nc1ccc(-c2ccc(N3CCOCC3)nc2)c(N)n1 [Compound 78, 3-(6-morpholino-3-pyridyl)pyridine-2,6-diamine]
24 | 155 to 159 °C | Nc1ccc(-c2ccc(N3CCCCC3)nc2)c(N)n1 [Compound 79, 3-[6-(1-piperidyl)-3-pyridyl]pyridine-2,6-diamine]
25 | 178 to 182 °C | CNc1ccc(-c2ccc(N)nc2N)cn1 [Compound 80, 3-[6-(methylamino)-3-pyridyl]pyridine-2,6-diamine]
26 | 220 to 240 °C | Nc1ccc(-c2ccc(N)nc2N)cn1 [Compound 82, 3-(6-amino-3-pyridyl)pyridine-2,6-diamine]
27 | 154 to 155 °C | Nc1ccc(-c2cnc(N)c(C(F)(F)F)c2)c(N)n1 [Compound 83, 3-[6-amino-5-(trifluoromethyl)-3-pyridyl]pyridine-2,6-diamine]
28 | 184 to 188 °C | Nc1ccc(-c2cccnc2F)c(N)n1 [Compound 87, 3-(2-fluoro-3-pyridyl)pyridine-2,6-diamine]
29 | > 250 °C | Cc1n[nH]c(C)c1-c1ccc(N)nc1N [Compound 90, 3-(3,5-dimethyl-1H-pyrazol-4-yl)pyridine-2,6-diamine]

Biological target: T1, hNPFFR1 (Homo sapiens, UniProt Q9GZQ6)
T1 construct: expressed in transfected cells; membranes
T1 sequence (Q9GZQ6 whole entry): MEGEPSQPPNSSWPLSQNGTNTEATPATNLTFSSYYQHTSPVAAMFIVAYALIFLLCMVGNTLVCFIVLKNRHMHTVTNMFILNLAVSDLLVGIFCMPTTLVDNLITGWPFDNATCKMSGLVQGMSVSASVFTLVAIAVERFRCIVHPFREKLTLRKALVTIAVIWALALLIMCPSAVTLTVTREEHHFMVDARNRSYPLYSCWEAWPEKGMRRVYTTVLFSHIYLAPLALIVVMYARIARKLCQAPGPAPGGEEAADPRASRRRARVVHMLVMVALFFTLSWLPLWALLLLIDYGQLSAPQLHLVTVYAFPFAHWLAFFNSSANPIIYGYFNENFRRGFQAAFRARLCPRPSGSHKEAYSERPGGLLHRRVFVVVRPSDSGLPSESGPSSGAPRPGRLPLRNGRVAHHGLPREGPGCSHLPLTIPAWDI
Assay: Radioligand binding competition, membranes from CHO cells expressing hNPFFR1
Settings: 0.015 nM [D-Tyr1[125I], N-MePhe3]-NPFF, 1 hr at 25° C., read-out: NPFF1-R Ki
Method: Competition experiments with membranes from CHO cells stably expressing hNPFFR1 and hNPFFR2 were performed essentially as described in Elhabazi, K., et al. Neuropharmacology, 2013. 75C, 164-171., Briefly, hNPFFR1 or hNPFFR2 membranes (5 to 10 μg of proteins) were incubated (1 hr at 25° C.; 0.25 mL total volume) with 0.015 nM [D-Tyr1[125I], N-MePhe3]-NPFF (Hartmann Analytic GmbH) in 50 mM HEPES (pH 7.4), 1 mM CaCl2, 1 mM MgCl2 and 0.1% bovine serum albumin. Non-specific binding was determined in the presence of 10 μM RFRP-3. Incubation was terminated by rapid filtration through a 96-well GF/B unifilter apparatus (Perkin Elmer Life and Analytical Sciences, Courtaboeuf, France). Unifilters were washed five times with binding buffer, then dried for 1 h at 65° C. After addition of 40 μL scintillation cocktail (Microscint-O, Perkin Elmer) per well, bound radioactivity was determined on a TopCount scintillation counter (Perkin Elmer).

Row | Ki | Structure (SMILES)
30 | 188 nM | Nc1ccc(-c2ccccc2)c(N)n1 [Compound 1a, 3-phenylpyridine-2,6-diamine]
31 | 34 nM | Nc1ccc(-c2ccccc2OC(F)(F)F)c(N)n1 [Compound 2c, 3-(2-(trifluoromethoxy)phenyl) pyridine-2,6-diamine]
32 | 5390 nM | Nc1ccc(-c2ccncc2)c(N)n1 [Compound 3d, [3,4′-bipyridine]-2,6-diamine]
33 | 1930 nM | Nc1ccc(-c2cccnc2)c(N)n1 [Compound 3e, [3,3′-bipyridine]-2,6-diamine]

Biological target: T2, human NPFFR1 (hNPFFR1) receptor (Homo sapiens, UniProt Q9GZQ6)
T2 construct: expressed in transfected cells; host or cells: HEK-293 T cells, transient co-transfection
T2 sequence (Q9GZQ6 whole entry): as above
Assay: Human NPFFR1 evaluation using BRET biosensors in HEK-293 T cells
Type: cell-based
Settings: hNPFFR1 in HEK-293 T cells, stimulated by EC80 RFRP-3, read-out: IC50 of antagonist activity
Method: Compounds of the present invention were tested successively for their agonist and antagonist activities on human NPFFR1 (hNPFFR1) receptor transiently over-expressed in HEK-293 T cells. Compounds exert agonist activity if, by themselves in absence of neuropeptide RFRP-3 (also named NPVF) they activate hNPFFR1; and they exert antagonist activity if they decrease the action of RFRP-3 on the receptor. The assay used to measure compound activity is based on BRET (Bioluminescence Resonance Energy Transfer) biosensors and is designed to monitor the plasma membrane translocation of protein that interacts with specific Ga subunit. The specific effector (luciferase tagged: BRET donor) recruited at the membrane will be in close proximity to a plasma membrane anchor (GFP tagged: BRET acceptor) to induce a BRET signal (Ramdan et al, 2006, Chapter 5, Current Protocols in Neuroscience).
HEK-293 T cells are maintained in Dulbecco's Modified Eagle's Medium supplemented with 10% Foetal Calf Serum, 1% Penicillin/Streptomycin at 37° C./5% CO2. Cells are co-transfected using polyethylenimine (25 kDa linear) with four DNA plasmids encoding; hNPFFR1, GαoB, a Gi family specific intracellular effector fused to luciferase (BRET donor), a plasma membrane effector fused to GFP (BRET acceptor). After transfection, cells are cultured for 48 h at 37° C./5% CO2.
Receptor activity is detected by changes in BRET signal.
On the day of the assay, cells are detached using trypsin 0.05%, resuspended in assay buffer (1.8 mM CaCl2, 1 mM MgCl2, 2.7 mM KCl, 137 mM NaCl, 0.4 mM NaH2PO4, 5.5 mM D-Glucose, 11.9 mM NaHCO3, 25 mM Hepes) and seeded in 384 well plate at a density of 20,000 cells per well. Then, plates are equilibrated 3.5 hours at 37° C. before adding compounds.
Compounds and luciferase substrate are added to the cells using an automated device (Freedom Evo®, Tecan) and BRET readings are collected on EnVision (PerkinElmer) with specific filters (410 nm BW 80 nm, 515 nm BW 30 nm).
Agonist and antagonist activities of compounds are consecutively evaluated on the same cell plate. Agonist activity is first measured after 10 minutes incubation with compound alone on the cells. Then, cells are stimulated by an EC80 RFRP-3 concentration and luminescence is recorded for additional 10 minutes. EC80 RFRP-3 concentration is the concentration giving 80% of the maximal RFRP-3 response. Agonist or antagonist activities are evaluated in comparison to basal signals evoked by assay buffer or EC80 RFRP-3 alone, respectively.
For IC50 determination, a dose-response test is performed using 20 concentrations (ranging over 6 logs) of each compound. Dose-response curves are fitted using the sigmoidal dose-response (variable slope) analysis in GraphPad Prism software (GraphPad Software) and IC50 of antagonist activity is calculated. Dose-response experiments are performed in duplicate, in two independent experiments.

Row | IC50 | Structure (SMILES)
34 | > 1000 nM | Nc1ccc(-c2ccccc2)c(N)n1 [Compound 1a, 3-phenylpyridine-2,6-diamine]
35 | 500 to 1000 nM | Nc1ccc(-c2ccccc2OC(F)(F)F)c(N)n1 [Compound 2c, 3-(2-(trifluoromethoxy)phenyl) pyridine-2,6-diamine]
36 | 100 to 500 nM | CCc1nc(N)ccc1-c1cccc(Cl)c1C [Compound 29, 5-(3-chloro-2-methyl-phenyl)-6-ethyl-pyridin-2-ylamine]
37 | > 1000 nM | COc1cccc(OC(C)C)c1-c1ccc(N)nc1N [Compound 39, 3-(2-Isopropoxy-6-methoxy-phenyl)-pyridine-2,6-diamine]
38 | < 100 nM | Nc1ccc(-c2ccccc2C2CC2)c(N)n1 [Compound 42, 3-(2-Cyclopropyl-phenyl)-pyridine-2,6-diamine]
39 | 100 to 500 nM | Nc1ccc(-c2ccccc2Oc2ccccc2)c(N)n1 [Compound 43, 3-(2-Phenoxy-phenyl)-pyridine-2,6-diamine]
40 | 100 to 500 nM | Nc1ccc(-c2ccccc2Cc2ccccc2)c(N)n1 [Compound 44, 3-(2-Benzyl-phenyl)-pyridine-2,6-diamine]
41 | 500 to 1000 nM | Nc1ccc(-c2ccc(Cl)cc2OC2CCCC2)c(N)n1 [Compound 47, 3-(4-Chloro-2-cyclopentyloxy-phenyl)-pyridine-2,6-diamine]
42 | 100 to 500 nM | Nc1ccc(-c2ccccc2OC2CC2)c(N)n1 [Compound 48, 3-(2-Cyclopropoxy-phenyl)-pyridine-2,6-diamine]
43 | 100 to 500 nM | Nc1ccc(-c2cc(Cl)ccc2C2CC2)c(N)n1 [Compound 55, 3-(5-Chloro-2-cyclopropyl-phenyl)-pyridine-2,6-diamine]
44 | 100 to 500 nM | CN(C)c1ccccc1-c1ccc(N)nc1N [Compound 61, 3-(2-Dimethylamino-phenyl)-pyridine-2,6-diamine]
45 | > 1000 nM | COc1ccncc1-c1ccc(N)nc1N [Compound 88, 3-(4-methoxy-3-pyridyl)pyridine-2,6-diamine]

Reference: US20210221784A1, “COMPOUNDS AND COMPOSITIONS FOR THE TREATMENT OF PAIN” (Université de Strasbourg, priority 2018, published 2021)
